Data from the NIST ThermoML archive (doi:10.1021/je900359y).
± gives the expanded uncertainty stated by the source.

Assay: mn = molality of the nth substance listed, in mol/kg
Conditions: Liquid, Constant-volume piezometry

[Br-].[NH4+] [ammonium bromide] + N
mass density [kg/m3]
Conditions	m1 = 1.143	m1 = 2.601	m1 = 4.381	m1 = 7.359	m1 = 10.35	m1 = 15.17
303.15 K, 10000 kPa	675.9 ± 2.7	750.8 ± 3	829 ± 3.3	939.1 ± 3.8	1028.9 ± 4.1	1126.2 ± 4.5
303.15 K, 15000 kPa	679.5 ± 2.7	754.5 ± 3	832.7 ± 3.3	942.7 ± 3.8	1032.2 ± 4.1	1128.1 ± 4.5
303.15 K, 20000 kPa	682.7 ± 2.7	758 ± 3	836.1 ± 3.4	945.8 ± 3.8	1034.9 ± 4.2	1130.1 ± 4.5
303.15 K, 25000 kPa	686.3 ± 2.8	761.3 ± 3.1	839.1 ± 3.4	948.9 ± 3.8	1037.4 ± 4.2	1132 ± 4.5
303.15 K, 30000 kPa	689.5 ± 2.8	764.4 ± 3.1	842.1 ± 3.4	951.2 ± 3.8	1039.8 ± 4.2	1134 ± 4.6
313.15 K, 10000 kPa	661.3 ± 2.6	737.8 ± 3	817.3 ± 3.3	926.8 ± 3.7	1017 ± 4.1	1116.9 ± 4.5
313.15 K, 15000 kPa	665.1 ± 2.7	741.4 ± 3	820.9 ± 3.3	929.8 ± 3.7	1020.3 ± 4.1	1118.8 ± 4.5
313.15 K, 20000 kPa	668.9 ± 2.7	745 ± 3	824.2 ± 3.3	932.8 ± 3.7	1023.2 ± 4.1	1120.4 ± 4.5
313.15 K, 25000 kPa	672.6 ± 2.7	748.6 ± 3	827.6 ± 3.3	935.5 ± 3.8	1025.9 ± 4.1	1122 ± 4.5
313.15 K, 30000 kPa	676.3 ± 2.7	752.1 ± 3	830.7 ± 3.3	938 ± 3.8	1028.6 ± 4.1	1123.6 ± 4.5
323.15 K, 10000 kPa	646.8 ± 2.6	724.3 ± 2.9	805 ± 3.2	914.3 ± 3.7	1005.2 ± 4	1105.9 ± 4.4
323.15 K, 15000 kPa	651.2 ± 2.6	727.7 ± 2.9	808.9 ± 3.2	917.4 ± 3.7	1008.3 ± 4	1107.8 ± 4.4
323.15 K, 20000 kPa	655.4 ± 2.6	731.4 ± 2.9	812.6 ± 3.3	920.3 ± 3.7	1011.2 ± 4.1	1109.7 ± 4.5
323.15 K, 25000 kPa	659.7 ± 2.6	734.9 ± 2.9	816.1 ± 3.3	923 ± 3.7	1014.1 ± 4.1	1111.5 ± 4.5
323.15 K, 30000 kPa	663.8 ± 2.7	738.7 ± 3	819.4 ± 3.3	926 ± 3.7	1016.7 ± 4.1	1113.4 ± 4.5
333.15 K, 10000 kPa	630.2 ± 2.5	709.5 ± 2.8	791.1 ± 3.2	903.1 ± 3.6	994.4 ± 4	1096 ± 4.4
333.15 K, 15000 kPa	635.4 ± 2.5	714 ± 2.9	795.1 ± 3.2	906.7 ± 3.6	997.8 ± 4	1098.2 ± 4.4
333.15 K, 20000 kPa	640.3 ± 2.6	718.3 ± 2.9	799.1 ± 3.2	909.8 ± 3.7	1001.2 ± 4	1100.3 ± 4.4
333.15 K, 25000 kPa	645.1 ± 2.6	722.5 ± 2.9	803 ± 3.2	912.7 ± 3.7	1004 ± 4	1102.2 ± 4.4
333.15 K, 30000 kPa	649.5 ± 2.6	726.3 ± 2.9	–	–	–	–
